Data published in article PMC6130490, “Inhibition of key enzymes linked to type 2 diabetes by compounds isolated from Aframomum melegueta fruit” (Pharmaceutical Biology, 2017).
Read-outs that look alike come from different tables or passages of the source.

Legend:
Format in all cases: biochemical
[1] = biological target: T1, Saccharomyces cerevisiae α-glucosidase (E.C. 3.2.1.20) (Saccharomyces cerevisiae, UniProt P53341); assay: biochemical; conditions: for type of inhibition of α-glucosidase: Lineweaver-Burke plot
T1 construct: purchased Sigma-Aldrich through Capital Lab Supplies
T1 sequence (P53341 whole entry): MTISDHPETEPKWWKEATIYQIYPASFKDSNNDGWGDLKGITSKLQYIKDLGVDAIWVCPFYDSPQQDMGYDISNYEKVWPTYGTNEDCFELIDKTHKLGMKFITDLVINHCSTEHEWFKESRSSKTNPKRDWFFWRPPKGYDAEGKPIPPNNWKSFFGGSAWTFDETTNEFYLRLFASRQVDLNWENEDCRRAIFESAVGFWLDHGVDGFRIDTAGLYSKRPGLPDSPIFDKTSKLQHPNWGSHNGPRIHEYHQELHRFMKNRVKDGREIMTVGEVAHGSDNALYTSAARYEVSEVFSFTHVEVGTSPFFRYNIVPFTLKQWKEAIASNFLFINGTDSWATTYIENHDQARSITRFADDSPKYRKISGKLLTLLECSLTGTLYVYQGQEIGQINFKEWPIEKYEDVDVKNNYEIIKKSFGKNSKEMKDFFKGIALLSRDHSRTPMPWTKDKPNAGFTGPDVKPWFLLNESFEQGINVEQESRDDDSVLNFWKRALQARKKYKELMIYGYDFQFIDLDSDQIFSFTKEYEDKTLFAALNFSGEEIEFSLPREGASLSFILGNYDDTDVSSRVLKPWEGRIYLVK
Description: (§1) The 5.0 mM p-nitrophenyl glucopyranoside (pNPG) substrate solution was prepared in 20 mM phosphate buffer, pH 6.9. […] Thereafter, 250 μL of 5.0 mM pNPG was dissolved in 20 mM phosphate buffer (pH 6.9) as a substrate to start the reaction. The reaction mixture was incubated at 37 °C for 30 min.
(§2) The isolated compounds were subjected to kinetic experiments to determine the type of inhibition exerted on α-amylase and α-glucosidase. The experiment was conducted according to the protocols mentioned above at a constant concentration of the compounds (30 μg/mL) with a variable concentration of substrate. […] The initial velocity data obtained were used to construct Lineweaver-Burke plots to determine the K M (Michaelis constant) and v max (maximum velocity) of the enzyme as well as the Ki (inhibition binding constant as a measure of affinity of the inhibitor to the enzyme) and the type of inhibition for both enzymes.

[2] = biological target: T2, porcine pancreatic α-amylase (E.C. 3.2.1.1) (Sus scrofa, UniProt P00690); assay: α-Amylase inhibitory effect (starch/DNS method); conditions: mean ± SD of triplicate; compounds tested at 30–240 μg/mL; read-out: IC50 α-amylase inhibition
T2 construct: purchased Sigma-Aldrich through Capital Lab Supplies
T2 sequence (P00690 16-511): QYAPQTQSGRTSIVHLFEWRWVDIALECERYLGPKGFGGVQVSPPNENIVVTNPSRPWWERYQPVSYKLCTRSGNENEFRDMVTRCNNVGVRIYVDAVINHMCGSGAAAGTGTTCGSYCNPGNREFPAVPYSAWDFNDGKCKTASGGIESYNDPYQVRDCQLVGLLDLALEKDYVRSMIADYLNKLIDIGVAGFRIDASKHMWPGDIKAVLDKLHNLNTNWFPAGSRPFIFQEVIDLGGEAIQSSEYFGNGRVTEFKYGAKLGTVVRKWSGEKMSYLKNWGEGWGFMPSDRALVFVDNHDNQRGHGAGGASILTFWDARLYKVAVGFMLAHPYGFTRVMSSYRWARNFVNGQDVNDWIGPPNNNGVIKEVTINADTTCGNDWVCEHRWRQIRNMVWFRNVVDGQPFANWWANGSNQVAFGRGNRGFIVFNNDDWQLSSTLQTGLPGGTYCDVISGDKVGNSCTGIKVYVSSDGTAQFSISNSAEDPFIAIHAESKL
Description: (§3) Saccharomyces cerevisiae α-glucosidase (E.C. 3.2.1.20), porcine pancreatic α-amylase (E.C. 3.2.1.1), p-nitrophenyl glucopyranoside (pNPG) and p-nitrophenol were obtained from Sigma-Aldrich through Capital Lab Supplies, New Germany, South Africa. Starch, dinitrosalicylic acid (DNS), maltose, absolute ethanol and ethyl acetate were obtained from Merck Chemical Company, Durban, South Africa.
(§4) This solution was pre-incubated at 25 °C for 10 min, after which 250 μL of 1% starch solution in 0.02 M sodium phosphate buffer (pH 6.9) was added at a time interval of 10 s and then further incubated at 25 °C for 10 min. The reaction was terminated after incubation by adding 1 mL of dinitrosalicylic acid (DNS) reagent. The tube was then boiled for 10 min and cooled to room temperature. […] A control was prepared using the same procedure using distilled water instead of the compound.

[3] = biological target: T2, porcine pancreatic α-amylase (E.C. 3.2.1.1); assay: Mechanism of α-amylase inhibition (Lineweaver-Burke kinetics); conditions: compound 30 μg/mL; for type of inhibition of α-amylase: Lineweaver-Burke plot; for KM, α-amylase inhibition / Ki / Vmax, α-amylase inhibition: starch 0.063–1.0%
Description: as §4, §2

[4] = biological target: T1, Saccharomyces cerevisiae α-glucosidase (E.C. 3.2.1.20); assay: α-Glucosidase inhibitory effect (pNPG method)
Description: as §3, §1

[5] = compound 30 μg/mL, pNPG 0.313–5.0 mM
[6] = compound 30 μg/mL, pNPG 0.313–5.0 mM, read-out: Ki, α-glucosidase inhibition (converted)
[7] = mean ± SD of triplicate, compounds tested at 30–240 μg/mL, read-out: IC50 α-glucosidase inhibition

Structure (SMILES): CCCCC[C@H](O)CC(=O)CCc1ccc(O)c(OC)c1 [6-Gingerol (3), 6-gingerol]
- Ki [1]: 26.6 µM
- type of inhibition of α-glucosidase ([1]; compound 30 μg/mL): noncompetitive
- Vmax, α-glucosidase inhibition [1, 5]: 123.10 µmol/min
- IC50 [2]: 81.8 ± 7.79 µM
- type of inhibition of α-amylase [3]: noncompetitive
- KM, α-amylase inhibition [3]: 0.06%
- Ki [3]: 89.9 µM
- Vmax, α-amylase inhibition [3]: 16.73 µmol/min
- IC50 [4]: 21.5 ± 0.45 µM

Structure (SMILES): CCCCCCCC(=O)CCc1ccc(O)c(OC)c1 [6-Paradol (1), 6-paradol]
- type of inhibition of α-glucosidase ([1]; compound 30 μg/mL): noncompetitive
- Vmax, α-glucosidase inhibition [1, 5]: 81.20 µmol/min
- Ki [1, 6]: 22.4 µM
- IC50 [2]: 665 ± 11.6 µM
- type of inhibition of α-amylase [3]: noncompetitive
- KM, α-amylase inhibition [3]: 0.06%
- Ki [3]: 83.7 µM
- Vmax, α-amylase inhibition [3]: 15.60 µmol/min
- IC50 [4, 7]: 243 ± 6.65 µM

Structure (SMILES): CCCCC/C=C/C(=O)CCc1ccc(O)c(OC)c1 [6-Shagaol (2), 6-shogaol]
- Vmax, α-glucosidase inhibition [1, 5]: 55.70 µmol/min
- Ki [1, 6]: 14.5 µM
- IC50 [2]: 443.2 ± 1.38 µM
- type of inhibition of α-amylase [3]: mixed
- KM, α-amylase inhibition [3]: 0.09%
- Ki [3]: 226 µM
- Vmax, α-amylase inhibition [3]: 24.10 µmol/min
- IC50 [4, 7]: 326 ± 5.6 µM

Structure (SMILES): CC1(C)CC[C@]2(C(=O)O)CC[C@]3(C)C(=CC[C@@H]4[C@@]5(C)CC[C@H](O)C(C)(C)[C@@H]5CC[C@]43C)[C@@H]2C1 [Oleanolic acid (4), oleanolic acid]
- Vmax, α-glucosidase inhibition [1, 5]: 64.20 µmol/min
